{
  "source": "patent US5925668A",
  "about": "“Thioctic metabolites and methods of use thereof” (priority 1998, dated 1999)",
  "key": {"[1]": {"assay": "Stability in aqueous solutions", "type": "physicochemical", "conditions": "compared to plasma"}, "[2]": {"assay": "Plasma pharmacokinetics and metabolism of lipoic acid after oral administration of 1 gram R-lipoic acid to a healthy volunteer (HPLC/ECD)", "type": "in vivo, human", "procedure": "The HPLC system consisted of a pump (thermo separation products, Spectra SERLES P100,Breda, the Netherlands), an auto-injector (Gilson, Meyvis, model 232 XL, Bergen op Zoom, the Netherlands) with a […] sample loop and a dilutor (Gilson, Meyvis, model 401 C, Bergen op Zoom, the Netherlands). The system was equipped with an electrochemical detector (Coulochem ESA, model 5100 A, Interscience, Breda, the Netherlands) and an analytical cell (ESA, model 5010). Interscience, Breda, the Netherlands) which consisted of two cell compartments.\nThe separations were performed using a Hypersil C 18 column (125 mm×4.6 mm i.d., […] particle size) and a mobile phase of phosphate buffer (50 mM KH2 PO4 /H3 PO4, pH 2.7) and acetonitrile (65:35, v/v). Before use, the eluent was vacuum filtrated over a […] filter. The flow rate was 0.7 ml/min.\nSample Collection and Preparation\n(§1) To a healthy volunteer (82 kg), who fasted overnight, 1 gram of R-lipoic acid (4 capsules of 250 mg) was administered orally. At several time points (0-5 hr), blood samples of 3 ml were taken from a venous cannula into Li-heparine containing tubes. The samples were centrifuged (2000 g at 4° C. for 5 min) and the plasma was analyzed immediately. The proteins in the plasma were precipitated by adding 1 ml ethanol and […] 85% (g/g) H3 PO4 to […] plasma. Thereafter, the sample was thoroughly mixed on a vortex mixer and placed on ice. After 15 min it was centrifuged at 2000 g for 10 min at 4° C. […] of the supernatant were brought onto the column. Quality control samples were prepared by spiking plasma with a small volume (less than 1%) of an ethanol solution of the compound.\nFor the elucidation of the structure of the metabolites, the plasma obtained at 69, 92 and 119 min was pooled (approximate total volume was 3 ml). The pooled plasma was acidified with 3 ml 3 M sulfuric acid. Thereafter, the sample was extracted twice with 12 ml HPLC-grade ethylacetate (Baker Phillipsburg, N.J.). After evaporation of the ethylacetate the compounds were methylated with diazomethane for 30 min at room temperature. Subsequently, the compounds were dissolved in […] ethanol. A volume of […] was injected on a GC/MS system using a split injection ratio of 1/15. The instrument used was a HP 5890 GC equipped with a HP 5970 mass selective detector. Gas chromatography was performed on a CPSil 5 CB WCOT capillary column (25 m, […] i.d., […]; Chrompack, Middelburg, the Netherlands). While the temperature of the injector and transfer line were kept at 250° C., two oven temperature programs were required to obtain satisfactory separation of all lipoic acid related components from endogenous plasma components. The oven temperature was programmed from 60° C. (kept for 2 min) to 180° C. (at 20° C./min) with an isothermal period (10 min) and subsequent temperature increase to 288° C. (at 20° C./min) and another isothermal period; this produced satisfactory results for all components except bisnorlipoic acid. Bisnorlipoic acid could be separated from background components by using a program from 60° C. (kept for 2 min) to 160° C. (at 20° C./min with an isothermal period (15 min) and subsequent raise to 288° C. (at 20° C./min). Detection was performed by using 70 eV impact ionization.\nThe Pharmocokinetic Analysis\nA volunteer was given 1 gram R-lipoic acid. […] Somewhat later, an unknown metabolite was observed which eluted at 5.5 min (peak nr. 6 in FIG. 2). Thereafter, a second unknown appeared which eluted at 4.7 min (peak nr. 5 in FIG. 2). Subsequently, ca. 45 after administration, bisnorlipoic acid could be detected (peak nr. 4 in FIG. 2). […] The time course of the plasma concentrations of lipoic acid, the two unknown metabolites and bisnorlipoic acid are shown in FIG. 3. Around 45 min a maximum in the lipoic acid concentration is reached. At 75 min a diet containing a high amount of fat was consumed. […]"}, "human cells in culture": {"system": "human cells in culture", "conditions": "cited from earlier work"}, "[3]": {"type": "in vitro ADME", "procedure": "as §1\nThe stability of lipoic acid in plasma was evaluated by spiking plasma at 0.5 mg/ml and storing it at -25° C. […]\nThe stability of dihydrolipoic acid in plasma was also evaluated by spiking plasma at 0.5 mg/ml and storing it at -25° C. After approximately 20 hours, ca. 6% of the theoretical value was detected. […] Lipoic acid was also detected in the quality control samples of dihydrolipoic acid used for determination of the accuracy and precision. […] This means that the sample is immediately analyzed after blood sampling, and the pH is reduced to increase the stability of thiols. […]"}, "human erythrocytes": {"system": "human erythrocytes", "conditions": "cited from earlier work"}},
  "data": [
    {"compound": "O=C(O)CCCC[C@@H](S)CCS", "note": "(racemic) [dihydrolipoic acid]", "values": [
      {"measurement": "stability in aqueous solutions", "setting": "[1]", "result": "more stable"}
    ]},
    {"compound": "O=C(O)CCCC[C@@H]1CCSS1", "note": "(racemic) [lipoic acid, 1,2-dithiolane-3-pentanoic acid]", "values": [
      {"measurement": "free plasma concentration before administration", "setting": "[2]; human, in vivo", "result": "< 7.8", "unit": "ng/mL"},
      {"measurement": "Cmax", "setting": "[2]; human, in vivo, po", "result": 1150, "unit": "ng/mL"},
      {"measurement": "half life", "setting": "[2]; human, in vivo, po", "result": 0.933, "unit": "h"},
      {"measurement": "time of first appearance in plasma", "setting": "[2]; human, in vivo, po", "result": 30, "unit": "min"},
      {"measurement": "half-life", "setting": "[2]; human, in vivo, po, half life", "result": "~1", "unit": "h"},
      {"measurement": "Tmax", "setting": "[2]; human, in vivo, po, time of (first) maximum in plasma concentration", "result": "~0.75", "unit": "h"},
      {"measurement": "Tmax", "setting": "[2]; human, in vivo, po, time of maximum plasma concentration", "result": 1.53, "unit": "h"},
      {"measurement": "elimination kinetics", "setting": "[2]; oral 1 gram R-lipoic acid", "result": "first order kinetics"},
      {"measurement": "presence in plasma after three hours", "setting": "[2]; oral 1 gram R-lipoic acid", "result": "essentially absent from the plasma"},
      {"measurement": "time of first appearance in plasma", "setting": "[2]; oral 1 gram R-lipoic acid", "result": "Thirty minutes"},
      {"measurement": "reduction of lipoic acid into dihydrolipoic acid", "setting": "human cells in culture", "result": "reduction of lipoic acid was shown"},
      {"measurement": "stability in plasma", "setting": "[3]", "result": "stable in plasma for at least one week"},
      {"measurement": "reduction of lipoic acid into dihydrolipoic acid", "setting": "human erythrocytes", "result": "reduction of lipoic acid was shown"}
    ]},
    {"compound": "O=C(O)CC(O)CCC1CCSS1", "note": "(centres unmarked) [3-hydroxylipoic acid]", "values": [
      {"measurement": "order of reaching maximal plasma level", "setting": "[2]; human, in vivo, po", "result": "reaches its maximal level before the compound from peak 6 reaches maximum"}
    ]},
    {"compound": "O=C(O)CC(=O)CCC1CCSS1", "note": "(centres unmarked) [3-ketolipoic acid]", "values": [
      {"measurement": "order of reaching maximal plasma level", "setting": "[2]; human, in vivo, po", "result": "reaches its maximum plasma level just before bisnorlipoic acid reaches its maximum"},
      {"measurement": "time of maximum plasma concentration", "setting": "[2]; human, in vivo, po", "result": 119, "unit": "min"}
    ]},
    {"compound": "O=C(O)CCC1CCSS1", "note": "(centres unmarked) [bisnorlipoic acid]", "values": [
      {"measurement": "time of first detection in plasma", "setting": "[2]; human, in vivo, po", "result": "ca. 45"},
      {"measurement": "time of maximum plasma concentration", "setting": "[2]; human, in vivo, po", "result": 189, "unit": "min"}
    ]},
    {"compound": "O=C(O)C1CCSS1", "note": "(centres unmarked) [tetranorlipoic acid]", "values": [
      {"measurement": "detection in plasma after administration", "setting": "[2]; human, in vivo, po", "result": "Neither dihydrolipoic acid nor tetranorlipoic acid were found"}
    ]}
  ]
}
